Bounds are passed on as bounds.

The text below walks through data of US20250376483A1, “PRODRUGS OF PAN-KRAS INHIBITORS” (Mirati Therapeutics, Inc., priority 2022, published 2025).

The nature of series [1]: Plasma Stability Assay (human plasma). The class given is in vitro ADME. Conditions: both sexes; pooled human plasma, heparin, final conc. 2 μM, 37° C., 0-120 min; read-out: Human Plasma Stability t1/2. In outline:
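Compound at 2 μM final in pooled heparinised plasma (3 male, 3 female), incubated at 37° C with sampling at 0, 10, 30, 60 and 120 min. Acetonitrile stop, LC-MS/MS; % remaining from analyte/internal-standard peak area ratio relative to T0.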

Series [2] in a line: Whole Blood Stability Assay (mouse whole blood). It counts as in vitro ADME. Conditions: CD-1 mouse blood, EDTA-K2, final conc. 2 μM, 37° C., 0-120 min; for half-life at 2 μM: male, fresh whole blood, read-out: Mouse Whole Blood Stability t1/2. The method in brief: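 Compound at 2 μM final was incubated at 37 °C in fresh EDTA-K2 blood from male CD-1 mice. Samples at 0, 10, 30, 60 and 120 min were protein-precipitated with acetonitrile and analysed by LC-MS/MS. % remaining was derived from analyte/internal-standard peak area ratios.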

`CCc1c(F)ccc2cc(OC(=O)C3(C)CCC3)cc(N3CCc4c(nc(OC[C@@]56CCCN5C[C@H](F)C6)nc4N4CCC[C@]5(C4)NC(=O)NC5=O)C3)c12` [Example 61, 4-(4-((R)-2,4-dioxo-1,3,7-triazaspiro[4.5]decan-7-yl)-2-(((2R,7aS)-2-fluorotetrahydro-1H-pyrrolizin-7a(5H)-yl)methoxy)-5,8-dihydropyrido[3,4-d]pyrimidin-7(6H)-yl)-5-ethyl-6-fluoronaphthalen-2-yl 1-methylcyclobutane-1-carboxylate]: the half-life at 2 μM is greater than 289 min in series [1] and 2 min in series [2].
For `CCc1c(F)ccc2cc(OC(=O)C(C)(C)C)cc(-c3ncc4c(N5C[C@@H]6C[C@H](C5)[C@H](O)C6)nc(OC[C@@]56CCCN5C[C@H](F)C6)nc4c3F)c12` [Example 5, 5-ethyl-6-fluoro-4-(8-fluoro-2-(((2R,7aS)-2-fluorotetrahydro-1H-pyrrolizin-7a(5H)-yl)methoxy)-4-((1R,5R,6R)-6-hydroxy-3-azabicyclo[3.2.1]octan-3-yl)pyrido[4,3-d]pyrimidin-7-yl)naphthalen-2-yl pivalate] the same measures were 67 min and 2 min.
Turning to `CCc1c(F)ccc2cc(OC(=O)C(C)C)cc(N3CCc4c(nc(OC[C@@]56CCCN5C[C@H](F)C6)nc4N4CCC[C@]5(C4)NC(=O)NC5=O)C3)c12` [Example 34, 4-(4-((R)-2,4-dioxo-1,3,7-triazaspiro[4.5]decan-7-yl)-2-(((2R,7aS)-2-fluorotetrahydro-1H-pyrrolizin-7a(5H)-yl)methoxy)-5,8-dihydropyrido[3,4-d]pyrimidin-7(6H)-yl)-5-ethyl-6-fluoronaphthalen-2-yl isobutyrate], in series [1], the half-life at 2 μM was found to be 210 min. In addition, the “Mouse Whole Blood Stability t1/2” value in series [2] came to 1 min.
For `CCc1c(F)ccc2cc(OC(=O)C3CCC3)cc(N3CCc4c(nc(OC[C@@]56CCCN5C[C@H](F)C6)nc4N4CCC[C@]5(C4)NC(=O)NC5=O)C3)c12` [Example 64, 4-(4-((R)-2,4-dioxo-1,3,7-triazaspiro[4.5]decan-7-yl)-2-(((2R,7aS)-2-fluorotetrahydro-1H-pyrrolizin-7a(5H)-yl)methoxy)-5,8-dihydropyrido[3,4-d]pyrimidin-7(6H)-yl)-5-ethyl-6-fluoronaphthalen-2-yl cyclobutanecarboxylate], the half-life at 2 μM stood at 33 min in series [1] and 2 min in series [2].
The like results for `CCc1c(F)ccc2cc(OC(C)OC(=O)N(C)C)cc(-c3ncc4c(N5C[C@@H]6C[C@H](C5)[C@H](O)C6)nc(OC[C@@]56CCCN5C[C@H](F)C6)nc4c3F)c12` (stereo partly drawn) [Example 22, 1-((5-ethyl-6-fluoro-4-(8-fluoro-2-(((2R,7aS)-2-fluorotetrahydro-1H-pyrrolizin-7a(5H)-yl)methoxy)-4-((1R,5R,6R)-6-hydroxy-3-azabicyclo[3.2.1]octan-3-yl)pyrido[4,3-d]pyrimidin-7-yl)naphthalen-2-yl)oxy)ethyl dimethylcarbamate] were, in that order, greater than 289 min and greater than 289 min.
For `CCCCCCCCCC(=O)Oc1cc(N2CCc3c(nc(OC[C@@]45CCCN4C[C@H](F)C5)nc3N3CCC[C@]4(C3)NC(=O)NC4=O)C2)c2c(CC)c(F)ccc2c1` [Example 51, 4-(4-((R)-2,4-dioxo-1,3,7-triazaspiro[4.5]decan-7-yl)-2-(((2R,7aS)-2-fluorotetrahydro-1H-pyrrolizin-7a(5H)-yl)methoxy)-5,8-dihydropyrido[3,4-d]pyrimidin-7(6H)-yl)-5-ethyl-6-fluoronaphthalen-2-yl decanoate] the same measures were 235 min and 4 min.
The like results for `CCc1c(F)ccc2cc(OC(=O)C3CC3)cc(-c3ncc4c(N5C[C@@H]6C[C@H](C5)[C@H](O)C6)nc(OC[C@@]56CCCN5C[C@H](F)C6)nc4c3F)c12` [Example 4, 5-ethyl-6-fluoro-4-(8-fluoro-2-(((2R,7aS)-2-fluorotetrahydro-1H-pyrrolizin-7a(5H)-yl)methoxy)-4-((1R,5R,6R)-6-hydroxy-3-azabicyclo[3.2.1]octan-3-yl)pyrido[4,3-d]pyrimidin-7-yl)naphthalen-2-yl cyclopropanecarboxylate] were, in that order, 17 min and 5 min.
As to `CCc1c(F)ccc2cc(OC(=O)N3CCCCCCC3)cc(N3CCc4c(nc(OC[C@@]56CCCN5C[C@H](F)C6)nc4N4CCC[C@]5(C4)NC(=O)NC5=O)C3)c12` [Example 54, 4-(4-((R)-2,4-dioxo-1,3,7-triazaspiro[4.5]decan-7-yl)-2-(((2R,7aS)-2-fluorotetrahydro-1H-pyrrolizin-7a(5H)-yl)methoxy)-5,8-dihydropyrido[3,4-d]pyrimidin-7(6H)-yl)-5-ethyl-6-fluoronaphthalen-2-yl azocane-1-carboxylate], the half-life at 2 μM in series [1] and in series [2] was greater than 289 min throughout.
As for `CCc1c(F)ccc2cc(OC(=O)N3CCCCCC3)cc(N3CCc4c(nc(OC[C@@]56CCCN5C[C@H](F)C6)nc4N4CCC[C@]5(C4)NC(=O)NC5=O)C3)c12` [Example 53, 4-(4-((R)-2,4-dioxo-1,3,7-triazaspiro[4.5]decan-7-yl)-2-(((2R,7aS)-2-fluorotetrahydro-1H-pyrrolizin-7a(5H)-yl)methoxy)-5,8-dihydropyrido[3,4-d]pyrimidin-7(6H)-yl)-5-ethyl-6-fluoronaphthalen-2-yl azepane-1-carboxylate], the half-life at 2 μM in series [1] and in series [2] was greater than 289 min in each case.
As to `CCc1c(F)ccc2cc(OC(=O)C3CCCC3)cc(N3CCc4c(nc(OC[C@@]56CCCN5C[C@H](F)C6)nc4N4CCC[C@]5(C4)NC(=O)NC5=O)C3)c12` [Example 42, 4-(4-((R)-2,4-dioxo-1,3,7-triazaspiro[4.5]decan-7-yl)-2-(((2R,7aS)-2-fluorotetrahydro-1H-pyrrolizin-7a(5H)-yl)methoxy)-5,8-dihydropyrido[3,4-d]pyrimidin-7(6H)-yl)-5-ethyl-6-fluoronaphthalen-2-yl cyclopentanecarboxylate], the half-life at 2 μM in series [1] worked out at 79 min. Further, the “Mouse Whole Blood Stability t1/2” value in series [2] came out at 1 min.
The like results for `CCC(=O)Oc1cc(-c2ncc3c(N4C[C@@H]5C[C@H](C4)[C@H](O)C5)nc(OC[C@@]45CCCN4C[C@H](F)C5)nc3c2F)c2c(CC)c(F)ccc2c1` [Example 2, 5-ethyl-6-fluoro-4-(8-fluoro-2-(((2R,7aS)-2-fluorotetrahydro-1H-pyrrolizin-7a(5H)-yl)methoxy)-4-((1R,5R,6R)-6-hydroxy-3-azabicyclo[3.2.1]octan-3-yl)pyrido[4,3-d]pyrimidin-7-yl)naphthalen-2-yl propionate] were, in that order, 13 min and 1 min.
Take `CCCCCC(=O)Oc1cc(-c2ncc3c(N4C[C@@H]5C[C@H](C4)[C@H](O)C5)nc(OC[C@@]45CCCN4C[C@H](F)C5)nc3c2F)c2c(CC)c(F)ccc2c1` [Example 18, 5-ethyl-6-fluoro-4-(8-fluoro-2-(((2R,7aS)-2-fluorotetrahydro-1H-pyrrolizin-7a(5H)-yl)methoxy)-4-((1R,5R,6R)-6-hydroxy-3-azabicyclo[3.2.1]octan-3-yl)pyrido[4,3-d]pyrimidin-7-yl)naphthalen-2-yl hexanoate]: the values for the half-life at 2 μM in series [1] and in series [2] were 44 min and less than 5 min, respectively.
The like results for `CCc1c(F)ccc2cc(OC(C)=O)cc(N3CCc4c(nc(OC[C@@]56CCCN5C[C@H](F)C6)nc4N4CCC[C@]5(C4)NC(=O)NC5=O)C3)c12` [Example 27, 4-(4-((R)-2,4-dioxo-1,3,7-triazaspiro[4.5]decan-7-yl)-2-(((2R,7aS)-2-fluorotetrahydro-1H-pyrrolizin-7a(5H)-yl)methoxy)-5,8-dihydropyrido[3,4-d]pyrimidin-7(6H)-yl)-5-ethyl-6-fluoronaphthalen-2-yl acetate] were, in that order, 12 min and 2 min.
Regarding `CCCCCC(=O)Oc1cc(N2CCc3c(nc(OC[C@@]45CCCN4C[C@H](F)C5)nc3N3CCC[C@]4(C3)NC(=O)NC4=O)C2)c2c(CC)c(F)ccc2c1` [Example 44, 4-(4-((R)-2,4-dioxo-1,3,7-triazaspiro[4.5]decan-7-yl)-2-(((2R,7aS)-2-fluorotetrahydro-1H-pyrrolizin-7a(5H)-yl)methoxy)-5,8-dihydropyrido[3,4-d]pyrimidin-7(6H)-yl)-5-ethyl-6-fluoronaphthalen-2-yl hexanoate], in series [1], the half-life at 2 μM is 142 min. The “Mouse Whole Blood Stability t1/2” value in series [2] is on record as 1 min.
The like results for `CCc1c(F)ccc2cc(OC(=O)C3(C)COC3)cc(N3CCc4c(nc(OC[C@@]56CCCN5C[C@H](F)C6)nc4N4CCC[C@]5(C4)NC(=O)NC5=O)C3)c12` [Example 62, 4-(4-((R)-2,4-dioxo-1,3,7-triazaspiro[4.5]decan-7-yl)-2-(((2R,7aS)-2-fluorotetrahydro-1H-pyrrolizin-7a(5H)-yl)methoxy)-5,8-dihydropyrido[3,4-d]pyrimidin-7(6H)-yl)-5-ethyl-6-fluoronaphthalen-2-yl 3-methyloxetane-3-carboxylate] were, in that order, 38 min and 1 min.
With `CCc1c(F)ccc2cc(OC(=O)C3CCCCC3)cc(N3CCc4c(nc(OC[C@@]56CCCN5C[C@H](F)C6)nc4N4CCC[C@]5(C4)NC(=O)NC5=O)C3)c12` [Example 47, 4-(4-((R)-2,4-dioxo-1,3,7-triazaspiro[4.5]decan-7-yl)-2-(((2R,7aS)-2-fluorotetrahydro-1H-pyrrolizin-7a(5H)-yl)methoxy)-5,8-dihydropyrido[3,4-d]pyrimidin-7(6H)-yl)-5-ethyl-6-fluoronaphthalen-2-yl cyclohexanecarboxylate], the results for the half-life at 2 μM in series [1] and in series [2] were 223 min and 4 min, respectively.
